Assay: Solubility of ferric meglumine / meglumine in solvents

## CNC[C@H](O)[C@@H](O)[C@H](O)[C@H](O)CO [Meglumine, N-Methyl-D-glucamine]
  solubility in water: soluble

Source: patent US20250367233A1, “NOVEL PHARMACEUTICAL COMPOSITION CONTAINING IRON AND MEGLUMINE” (priority 2024, published 2025)
